# Experimental data reported in the supplement of paper PMC11451515.
# How the values were obtained:
# Assay in all cases: AUC of viability dose-response curve (% viability x log10 dose units); higher = less sensitive
# Conditions in all cases: 48 h
# P12-Ichikawa = test system: P12-Ichikawa
# Summary of the method: (§1)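 Leukemia cells adapted to each medium were seeded in 1536-well plates (500 or 1000 cells/well). They were dosed with library compounds in DMSO at 11 threefold doses, 47 μM to 0.79 nM, for 48 h at 37°C. CellTiter-Glo One luminescence was normalised per plate to DMSO and cell-free wells. Area under the curve was integrated by trapezoidal rule over log10 doses on a four-parameter log-logistic fit; curves exceeding full viability were scaled and curves failing quality control removed.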
# SEM cells = test system: SEM cells
# Summary of the method: as §1
# NOMO1 = test system: NOMO1
# Summary of the method: as §1
# [1] = RPMI 5 mM glucose + 10% dialyzed FBS
SMILES,AUC of viability dose-response curve (P12-Ichikawa; HPLM + 10% dialyzed FBS),AUC of viability dose-response curve (P12-Ichikawa; RPMI 5 mM glucose + 10% FBS),AUC of viability dose-response curve (P12-Ichikawa; [1]),AUC of viability dose-response curve (SEM cells; HPLM + 10% dialyzed FBS),AUC of viability dose-response curve (SEM cells; RPMI 5 mM glucose + 10% FBS),AUC of viability dose-response curve (SEM cells; [1]),AUC of viability dose-response curve (NOMO1; HPLM + 10% dialyzed FBS),AUC of viability dose-response curve (NOMO1; RPMI 5 mM glucose + 10% FBS),AUC of viability dose-response curve (NOMO1; [1])
OC(=O)\C1=C\N(C2=CC=C(F)C=C2)C3=C(C=C(F)C(=C3)N4CCNCC4)C1=O,457,464,452,446,476,448,447,475,451
COc1cc2nc(N3CCCN(C)CC3)nc(NC3CCN(Cc4ccccc4)CC3)c2cc1OC,407,401,385,389,416,419,378,406,384
CCOc1ccc(Nc2nc(-c3c(C)nc4ccccn34)cs2)cc1,225,232,271,232,213,263,270,252,281
C[C@@H](O)[C@@H]1[C@H]2[C@@H](C)\C(=C(/N2C1=O)C(=O)OCOC(=O)C(C)(C)C)SC3CN(C3)/C4=N/CCS4,471,469,464,467,467,467,421,465,454
C[C@@]12O[C@@H](C[C@]1(O)CO)n1c3ccccc3c3c4c(c5c6ccccc6n2c5c31)CNC4=O,326,311,311,251,217,228,313,326,324
CN(C)C(=O)c1ccc([S+](=O)([O-])c2ccc(NC(=O)[C@@](C)(O)C(F)(F)F)c(Cl)c2)cc1,455,448,446,472,417,444,411,425,451
CN1\C(=C(\O)C2=C(C=CS2)[S+]1([O-])=O)C(=O)NC3=CC=CC=N3,465,449,459,467,474,475,450,453,455
CN(C/C=C/C#CC(C)(C)C)Cc1cccc2ccccc12,475,468,444,452,450,455,458,440,447
C1CCC(C(CC2CCCCN2)C2CCCCC2)CC1 (centres undefined),470,457,465,429,429,405,451,454,446
CC1(C)OC2CC3C4CC(F)C/5=C/C(=O)/C=C\C5(C)C4C(O)CC3(C)[C@@]2(O1)C(=O)CO (some centres undefined),390,340,325,386,360,354,454,465,456
C=CC1=C(C(=O)O)N2C(=O)[C@@H](NC(=O)/C(=N\O)c3csc(N)n3)[C@H]2SC1,,,,397,435,433,467,438,462
CNC1[C@@H](O)C(O[C@@H]2C(O)C(O[C@H]3O[C@H]([C@@H](C)NC)CC[C@H]3N)[C@@H](N)C[C@H]2N)OC[C@]1(C)O (some centres undefined),462,444,436,459,421,472,446,448,415
CN(C)CCc1c[nH]c2ccc(C[C@H]3COC(=O)N3)cc12,405,409,411,384,340,381,423,433,449
O=C1C[C@@H](c2ccc(O)cc2)Oc2cc(O)cc(O)c21,433,462,456,468,382,470,437,476,458
Cc1c(Cn2c(C)nc3c(C(=O)O)cc(N4CCOCC4)cc32)cccc1C(F)(F)F,472,463,470,469,463,455,448,474,465
CCOC(=O)[C@H](CCc1ccccc1)N[C@@H](C)C(=O)N1CCC[C@H]1C(=O)O,452,447,465,462,470,434,453,437,461
Cc1ncc(OC[C@@]2(c3cccc(F)c3)C[C@H]2C(=O)Nc2ccc(F)cn2)c(C)n1,455,474,470,444,435,452,476,474,464
OC[C@H]1O[C@H]([C@@H](F)[C@@H]1O)N2\C=C/C(=O)NC2=O,460,475,449,454,463,432,470,430,464
CCN(CC)C(=S)SSC(=S)N(CC)CC,366,363,362,,,,375,365,361
CC(C)(C)C(=O)OCOP(=O)(COCCn1cnc2c(N)ncnc21)OCOC(=O)C(C)(C)C,316,287,309,291,238,235,306,259,278
C[C@H]1C[C@H]2[C@@H]3CCC4=CC(=O)C=C[C@]4(C)[C@@]3(F)[C@@H](O)C[C@]2(C)[C@@]1(O)C(=O)CO,362,322,303,358,338,305,429,470,459
NC(=O)c1ncn([C@@H]2O[C@H](CO)[C@@H](O)[C@H]2O)n1,447,424,423,471,453,471,354,403,380
O=C1\C=C/C[C@@H]2[C@H]3CCCN4CCC[C@@H](CN12)[C@@H]34,473,429,469,465,441,476,456,442,448

SMILES,AUC of viability dose-response curve (P12-Ichikawa; HPLM + 10% dialyzed FBS),AUC of viability dose-response curve (P12-Ichikawa; RPMI 5 mM glucose + 10% FBS),AUC of viability dose-response curve (P12-Ichikawa; [1]),AUC of viability dose-response curve (SEM cells; HPLM + 10% dialyzed FBS),AUC of viability dose-response curve (SEM cells; RPMI 5 mM glucose + 10% FBS),AUC of viability dose-response curve (SEM cells; [1]),AUC of viability dose-response curve (NOMO1; HPLM + 10% dialyzed FBS),AUC of viability dose-response curve (NOMO1; RPMI 5 mM glucose + 10% FBS),AUC of viability dose-response curve (NOMO1; [1])
CC(=O)NC(CS)C(=O)O (centres undefined),369,354,359,,,,376,352,377
Cn1c(Nc2ccc(C(F)(F)F)cc2)nc2cc(Oc3ccnc(-c4nc(C(F)(F)F)c[nH]4)c3)ccc21,441,425,431,402,389,395,444,454,446
COc1cc2c(Oc3ccc(NC(=O)C4(C(=O)Nc5ccc(F)cc5)CC4)cc3F)ccnc2cc1OCCCN1CCOCC1,291,296,299,136,149,105,334,343,311
CC(=O)Nc1ccc([C@H](C)C(=O)Nc2ncc(C(C)C)s2)cc1,403,411,408,390,393,387,397,365,386
ClC1=CC(=CC=C1)N2CCN(CCCN3\N=C4\C=C/C=C\N4C3=O)CC2,453,473,468,419,446,464,465,453,451
CCOc1cc(N)c(Cl)cc1C(=O)NCC1CN(Cc2ccc(F)cc2)CCO1 (centres undefined),467,467,469,419,467,466,464,470,460
CCCCNc1cc(C(=O)O)cc([S+](N)(=O)[O-])c1Oc1ccccc1,458,465,465,419,433,440,477,427,461
CC(=O)O[C@@]1(CC[C@H]2[C@@H]3\C=C(C)/C4=C/C(=O)CC[C@]4(C)[C@H]3CC[C@]12C)C(C)=O,470,460,464,444,455,472,459,465,449
O=C(O)c1ccc(-n2nc(-c3ccccc3O)nc2-c2ccccc2O)cc1,433,422,422,427,408,415,441,442,408
NC(CO)(CO)CCc1ccc(Sc2cccc(OCc3ccccc3)c2)cc1Cl,400,408,400,,,,397,424,453
CC\1=C(C(=O)N(\C=C1)C2=CC=C(C=C2)C3=NC=CO3)/C4=CC5=CN=C(N)N=C5C=C4,472,467,465,383,387,350,470,456,472
CC1=CC=CC=C1CN2C(=O)C/3=C(/CCN(CC4=CC=CC=C4)C3)N\5CC\N=C25,418,417,418,410,376,391,388,393,384
O=C(/C=C/c1c(C(=O)[O-])[nH]c2cc(Cl)cc(Cl)c12)Nc1ccccc1,466,464,467,466,466,463,471,444,462
OCc1ccc(-c2nn(Cc3ccccc3)c3ccccc23)o1,442,464,459,369,346,347,385,425,405
C[C@@H]1COCCN1C\2=C\C(=O)N\3CC[C@H](N(CC4=CN=CC(=C4)Cl)C3=N2)C(F)(F)F,417,409,415,391,404,397,430,418,400
Cc1cccc(-c2nn(C(=S)Nc3ccccc3)cc2-c2ccnc3ccccc23)n1,440,444,437,465,455,456,431,461,456
CC(C)(C)C(=O)Oc1ccc([S+](=O)([O-])Nc2ccccc2C(=O)NCC(=O)O)cc1,416,423,420,465,436,471,428,437,443
c1cc(CN2CCCNCCNCCCNCC2)ccc1CN1CCCNCCNCCCNCC1,,,,390,387,416,,,
[NH2][Pt]([NH2])([Cl])[Cl],470,449,433,429,419,380,456,421,445
O=C(NC[C@H](O)CN1CCc2ccccc2C1)c1cc(NC2COC2)ncn1,397,372,388,,,,,,
CCC(=O)OCC(=O)[C@@]1(OC(=O)CC)[C@@H](C)C[C@H]2[C@@H]3CCC4=CC(=O)C=C[C@]4(C)[C@@]3(F)[C@@H](O)C[C@@]21C,351,335,317,426,390,372,360,408,391
CO[C@H]1C[C@@H]2CC[C@@H](C)[C@@](O)(O2)C(=O)C(=O)N2CCCC[C@H]2C(=O)O[C@H]([C@H](C)C[C@@H]2CC[C@@H](OC(=O)C(C)(CO)CO)[C@H](OC)C2)CC(=O)[C@H](C)/C=C(\C)[C@@H](O)[C@@H](OC)C(=O)[C@H](C)C[C@H](C)/C=C/C=C/C=C/1C,427,409,418,,,,453,435,447
CN1CCC(CC1)COC2=CN=C(N=C2)C3=CC(=CC=C3)CN4/N=C(\C=C/C4=O)C5=CC(=CC=C5)C#N,472,465,464,,,,468,464,471
